Assay results taken from patent publication EP1090020B1, “2-(PURIN-9-YL)-TETRAHYDROFURAN-3,4-DIOL DERIVATIVES” (GLAXO GROUP LIMITED, priority 1998, dated 1999).

Experiments:
Type in all cases: cell-based
[1] = target: T1, human adenosine receptor (adenosine 3) (Homo sapiens, UniProt P0DMS8); test: Agonist activity against adenosine 3 receptor subtype (CHO cells, cAMP response element/SPAP reporter); details: transfected CHO cells; effect on forskolin-enhanced cAMP reflected by SPAP; ratio to NECA
T1 sequence (P0DMS8 1-318): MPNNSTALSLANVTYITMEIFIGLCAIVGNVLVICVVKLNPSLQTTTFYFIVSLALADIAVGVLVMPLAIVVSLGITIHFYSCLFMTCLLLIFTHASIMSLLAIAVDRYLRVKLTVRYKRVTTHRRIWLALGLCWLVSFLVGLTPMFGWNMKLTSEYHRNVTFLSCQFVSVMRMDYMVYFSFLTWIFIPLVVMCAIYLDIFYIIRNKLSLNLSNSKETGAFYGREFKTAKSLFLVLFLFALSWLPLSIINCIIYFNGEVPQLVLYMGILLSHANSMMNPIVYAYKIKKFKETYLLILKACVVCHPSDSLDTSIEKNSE
Procedure: (§1) Compounds of the invention were tested for in vitro and in vivo biological activity in accordance with the following screens: • (1) Agonist activity against adenosine 2a, adenosine 1 and adenosine 3 receptor subtypes. Agonist selectivity of compounds against other human adenosine receptors was determined using Chinese hamster ovary (CHO) cells transfected with the gene for the relevant human adenosine receptor following a method based on that of Castanon and Spevak, 1994 . The CHO cells were also transfected with cyclic AMP response elements promoting the gene for secreted placental alkaline phosphatase (SPAP) (Wood, 1995). The effect of test compounds was determined by their effects on basal levels of CAMP (A2a) or on forskolin-enhanced cAMP (A1 and A3) as reflected by changes in levels of SPAP. EC50 values for compounds were then determined as a ratio to that of the non-selective agonist N-ethyl carboxamide adenosine (NECA).

[2] = target: T2, human adenosine receptor (adenosine 1) (Homo sapiens, UniProt P30542); test: Agonist activity against adenosine 1 receptor subtype (CHO cells, cAMP response element/SPAP reporter); details: transfected CHO cells; effect on forskolin-enhanced cAMP reflected by SPAP; ratio to NECA
T2 sequence (P30542 1-326): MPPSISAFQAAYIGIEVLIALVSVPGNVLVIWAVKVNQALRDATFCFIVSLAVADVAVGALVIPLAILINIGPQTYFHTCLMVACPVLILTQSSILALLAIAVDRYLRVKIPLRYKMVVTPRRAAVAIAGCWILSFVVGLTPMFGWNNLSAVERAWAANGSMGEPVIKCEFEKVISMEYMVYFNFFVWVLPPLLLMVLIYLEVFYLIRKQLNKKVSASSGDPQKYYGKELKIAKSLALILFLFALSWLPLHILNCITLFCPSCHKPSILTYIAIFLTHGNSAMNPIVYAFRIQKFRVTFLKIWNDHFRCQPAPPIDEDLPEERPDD
Procedure: as §1

[3] = target: human adenosine receptor (adenosine 2a) (Homo sapiens, UniProt P29274); test: Agonist activity against adenosine 2a receptor subtype (CHO cells, cAMP response element/SPAP reporter); details: transfected CHO cells; effect on basal levels of cAMP reflected by SPAP; ratio to NECA
Procedure: as §1

Chain of human adenosine receptor (adenosine 2a) (P29274 whole entry): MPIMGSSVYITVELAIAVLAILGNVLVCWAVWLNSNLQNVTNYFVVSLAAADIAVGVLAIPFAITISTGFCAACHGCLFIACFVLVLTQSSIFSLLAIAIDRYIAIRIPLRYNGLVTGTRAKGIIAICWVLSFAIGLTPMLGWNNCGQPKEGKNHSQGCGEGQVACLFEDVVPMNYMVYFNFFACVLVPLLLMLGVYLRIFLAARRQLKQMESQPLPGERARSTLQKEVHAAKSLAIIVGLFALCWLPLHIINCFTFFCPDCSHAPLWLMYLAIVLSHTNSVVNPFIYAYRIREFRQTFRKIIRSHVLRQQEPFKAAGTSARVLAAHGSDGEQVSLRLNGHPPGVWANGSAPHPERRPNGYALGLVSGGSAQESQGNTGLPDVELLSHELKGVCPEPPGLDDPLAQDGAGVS

Row | Compound | A3; EC50 values as a ratio of that of NECA [1] | A1; EC50 values as a ratio of that of NECA [2] | A2a; EC50 values as a ratio of that of NECA [3]
1 | CC(C)[C@@H](CO)Nc1nc(NCC(c2ccccc2)c2ccccc2)c2ncn([C@@H]3O[C@H](c4nnc[nH]4)[C@@H](O)[C@H]3O)c2n1.O=CO [Example 4, (2R,3R,4S,5R)-2-[6-(2,2-Diphenyl-ethylamino)-2-(1S-hydroxymethyl-2-methyl-propylamino)-purin-9-yl]-5-(4H-[1,2,4]triazol-3-yl)-tetrahydro-furan-3,4-diol formate] | > 306 | 670.92 | 3.79
2 | O=CO.O[C@@H]1[C@H](O)[C@@H](c2nnc[nH]2)O[C@H]1n1cnc2c(NCC(c3ccccc3)c3ccccc3)nc(NC3CCCC3)nc21 [Example 6, (2R,3R,4S,5R)-2-[2-Cyclopentylamino-6-(2,2-diphenyl-ethylamino)-purin-9-yl]-5-(4H-[1,2,4]triazol-3-yl)-tetrahydro-furan-3,4-diol formate] | > 305 | 1627 | 16.96
3 | Cn1cnc(CCNc2nc(NCC(c3ccccc3)c3ccccc3)c3ncn([C@@H]4O[C@H](c5nnc[nH]5)[C@@H](O)[C@H]4O)c3n2)c1.O=CO [Example 2, (2R,3R,4S,5R)-2-{6-(2,2-Diphenyl-ethylamino)-2-[2-(1-methyl-1H-imidazol-4-yl)-ethylamino]-purin-9-yl}-5-(4H-[1,2,4]triazol-3-yl)-tetrahydro-furan-3,4-diol formate] | > 430 | 1003.4 | 1.08
4 | N=C(N)NCCNc1nc(NCC(c2ccccc2)c2ccccc2)c2ncn([C@@H]3O[C@H](c4nnc[nH]4)[C@@H](O)[C@H]3O)c2n1.O=CO [Example 7, N-{2-[9-[3R,4S-Dihydroxy-5R-(4H-[1,2,4]triazol-3-yl)-tetrahydro-furan-2R-yl]-6-(2,2-diphenyl-ethylamino)-9H-purin-2-ylamino]-ethyl}-guanidine formate] | > 368 | 2577 | 19.01
5 | N[C@H]1CC[C@H](Nc2nc(NCC(c3ccccc3)c3ccccc3)c3ncn([C@@H]4O[C@H](c5nnc[nH]5)[C@@H](O)[C@H]4O)c3n2)CC1.O=CO [Example 1, (2R,3R,4S,5R)-2-[2-(trans-4-Amino-cyclohexylamino)-6-(2,2-diphenyl-ethylamino)-purin-9-yl]-5-(4H-[1,2,4]triazol-3-yl)-tetrahydro-furan-3,4-diol formate] | > 353 | 1098 | 11.37
6 | O=CO.O[C@@H]1[C@H](O)[C@@H](c2nnc[nH]2)O[C@H]1n1cnc2c(NCC(c3ccccc3)c3ccccc3)nc(NCCN3CCCCC3)nc21 [Example 9, (2R,3R,4S,5R)-2-[6-(2,2-Diphenyl-ethylamino)-2-(2-piperidin-1-yl-ethylamino)-purin-9-yl]-5-(4H-[1,2,4]triazol-3-yl)-tetrahydro-furan-3,4-diol formate] | > 472 | 969.8 | 8.13
7 | O=CO.OC[C@H](Cc1ccccc1)Nc1nc(NCC(c2ccccc2)c2ccccc2)c2ncn([C@@H]3O[C@H](c4nnc[nH]4)[C@@H](O)[C@H]3O)c2n1 [Example 8, (2R,3R,4S,5R)-2-[6-(2,2-Diphenyl-ethylamino)-2-(1S-hydroxymethyl-2-phenyl-ethylamino)-purin-9-yl]-5-(4H-[1,2,4]triazol-3-yl)-tetrahydro-furan-3,4-diol formate] | > 326 | 280.97 | 26.74
8 | O=CO.O[C@@H]1[C@H](O)[C@@H](c2nnc[nH]2)O[C@H]1n1cnc2c(NCC(c3ccccc3)c3ccccc3)nc(NCCc3ccccn3)nc21 [Example 5, (2R,3R,4S,5R)-2-[6-(2,2-Diphenyl-ethylamino)-2-(2-pyridin-2-yl-ethylamino)-purin-9-yl]-5-(4H-[1,2,4]triazol-3-yl)-tetrahydro-furan-3,4-diol formate] | > 397 | 3329 | 19.3
9 | O=CO.O[C@@H]1[C@H](O)[C@@H](c2nnc[nH]2)O[C@H]1n1cnc2c(NCC(c3ccccc3)c3ccccc3)nc(N[C@@H]3CCNC3)nc21 [Example 3, (2R,3R,4S,5R)-2-[6-(2,2-Diphenyl-ethylamino)-2-(pyrrolidin-3R-ylamino)-purin-9-yl]-5-(4H-[1,2,4]triazol-3-yl)-tetrahydro-furan-3,4-diol formate] | > 306 | 586.92 | 10.49
